Experimental data: the supplement of paper PMC10307832

Key:
Experiment in all cases: relative viability (nuclei count vs DMSO), 5 days (fraction); higher = more cells survive
Ibrutinib = compound: C=CC(=O)N1CCC[C@@H](n2nc(-c3ccc(Oc4ccccc4)cc3)c3c(N)ncnc32)C1 [Ibrutinib]
Outline: (§1)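 Viability here means nuclei in treated wells divided by nuclei in vehicle wells, reported as the median across plates. Only plates with control CV below 25% and at least one doubling passed. Lung cancer cell lines in 1536-well plates were exposed to five √10-spaced library-drug doses for 5 days and counted from 4× Hoechst images in MetaXpress.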

BMX-IN-1 = compound: C=CC(=O)Nc1cc(-n2c(=O)ccc3cnc4ccc(-c5ccc(NS(C)(=O)=O)cc5)cc4c32)ccc1C [BMX-IN-1]
Outline: as §1

PAC-1 = compound: C=CCc1cccc(/C=N/NC(=O)CN2CCN(Cc3ccccc3)CC2)c1O [PAC-1]
Outline: as §1

PAC-1 + Foretinib = compound: C=CCc1cccc(/C=N/NC(=O)CN2CCN(Cc3ccccc3)CC2)c1O [PAC-1] + COc1cc2c(Oc3ccc(NC(=O)C4(C(=O)Nc5ccc(F)cc5)CC4)cc3F)ccnc2cc1OCCCN1CCOCC1 [Foretinib] (partner 0.25 µM)
Outline: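 Lung cancer cell lines in 1536-well plates got either a single drug or a fixed anchor-drug dose together with five library-drug doses (not always all listed) in √10 steps, by pin tool, on the day after seeding. Nuclei were counted after 5 days, and relative viability is the treated-to-vehicle ratio of nuclei counts. Values are medians of duplicate plates.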

Cell Line	relative viability (Ibrutinib; 0.005 µM)	relative viability (Ibrutinib; 0.01581 µM)	relative viability (Ibrutinib; 0.05 µM)	relative viability (Ibrutinib; 0.1581 µM)	relative viability (Ibrutinib; 0.5 µM)	relative viability (BMX-IN-1; 0.02 µM)	relative viability (BMX-IN-1; 0.2 µM)	relative viability (BMX-IN-1; 0.6325 µM)	relative viability (BMX-IN-1; 2 µM)	relative viability (PAC-1; 0.02 µM)	relative viability (PAC-1; 0.06325 µM)	relative viability (PAC-1; 0.2 µM)	relative viability (PAC-1; 2 µM)	relative viability (PAC-1 + Foretinib; first compound 0.02 µM)	relative viability (PAC-1 + Foretinib; first compound 0.06325 µM)	relative viability (PAC-1 + Foretinib; first compound 0.2 µM)	relative viability (PAC-1 + Foretinib; first compound 2 µM)
H3255	0.912	0.858	0.745	0.945	0.547	1.08	0.974	1.12	1.02	1.07	1.01	0.942	0.909	0.925	0.814	0.883	0.89
HARA	0.976	0.965	0.689	0.793	0.457	1.05	1.04	1.08	1.08	0.98	1.08	0.905	1.03	0.675	0.833	0.863	0.918
HCC-15	1.12	1.01	1.04	0.857	1	1.11	1.1	1.11	1.13	1.09	1.08	0.969	1.08	0.993	1.08	0.985	1.04
HCC-78	0.904	0.97	0.916	0.748	0.691	1.01	1.08	1.02	0.952	1.01	0.892	0.974	1.11	0.522	0.591	0.634	0.589
HCC-366	1	0.962	0.968	0.913	1	1.13	1.09	1.05	1.04	0.997	0.979	1.02	1.03	0.903	0.925	0.899	0.989
HCC-827	–	1.01	1.08	1.02	0.868	1.05	1.06	1.09	1.04	1.08	1.04	1.07	1.03	1.11	1.03	0.964	1.03
HOP-62	1.02	0.964	0.994	0.949	1.14	1.1	1.08	1.08	1.06	1.05	1	0.996	1.07	1.1	1.13	1.1	1.17
IA-LM	0.794	1	1.06	1.05	1.04	1	0.997	1.04	1.02	1.09	1.05	0.89	1.03	1.17	1.19	1.11	1.17
LC-2-ad	0.996	0.973	0.941	0.905	0.995	1.1	1.05	1.08	1.02	1.01	1.04	1.01	0.974	0.968	0.875	0.887	0.954
LCLC-97TM1	1.11	0.888	0.906	0.85	0.909	1.04	1.11	1.12	1.02	0.897	1.16	0.807	0.937	0.989	1	0.945	0.955
LCLC-103H	0.966	0.999	0.965	0.882	0.946	1.09	1.1	1.07	1.1	1	0.975	1.02	1.01	0.734	0.785	0.713	0.689
LK-2	0.936	0.912	0.956	0.929	0.949	1.31	1.24	0.978	1.02	0.933	0.983	1	1.02	1.11	1.16	0.858	1.12
LOU-NH91	0.801	0.926	0.848	0.884	0.678	–	0.973	1.08	0.989	0.891	0.959	0.917	0.972	0.919	0.931	0.982	0.898
LU99A	0.992	0.884	0.892	1.06	0.939	0.986	0.95	1.06	0.962	0.908	0.977	0.892	0.954	0.91	0.854	0.818	0.774
LXF-289	1.06	1.01	1.04	0.972	0.973	1.06	1.05	1.01	1.02	0.974	1.01	0.997	1.01	0.907	1.02	1	0.934
NCI-H23	0.829	0.897	0.912	0.761	0.977	0.963	1.1	1.16	1.09	0.845	1.03	0.921	1.13	1.08	0.954	0.844	0.965
NCI-H322M	0.801	0.811	0.843	0.666	0.671	1.07	0.905	0.967	0.943	0.833	0.897	1.05	0.884	0.859	0.948	0.986	0.887
NCI-H358	0.637	0.713	0.611	0.786	0.47	1.12	0.962	1.04	0.914	0.921	0.848	0.905	0.789	0.622	0.573	0.645	0.574
NCI-H441	1.11	0.947	1.26	1.16	1.13	1.19	1.31	1.28	1.17	1.03	1.09	0.997	1.04	0.977	0.943	0.817	0.896
